In US20210355104A1, “ADENOSINE RECEPTOR BINDING COMPOUNDS” (Nikang Therapeuticsm Inc., priority 2018, published 2021) one finds IC50 data, which are given here for 11 molecules.

The structures appear in SMILES notation. pIC50: −log10 of the molar value. Several values for one entry are separate records, joined by “and”; a condition that tells them apart may be missing. Equal values may be shown once.

The term pIC50 denotes the IC50 on a negative log10 scale, so that one unit is a factor of ten.

In assay [1] the target is T1, Adenosine A2A receptor (Homo sapiens, UniProt P29274). In words: Adenosine A2A receptor competitive binding assay (Tag-lite HTRF). To be noted: Tag-lite adenosine A2A receptor ligand binding. In short, it runs like this: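 Tag-lite HTRF competition: donor-labelled cells expressing human A2A were mixed with serially diluted compounds (DMSO 0.6% in dilutions) and red fluorescent A2A antagonist ligand (60 nM stock). Incubated 2 h at room temperature before HTRF readout.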
T1 sequence (P29274 whole entry): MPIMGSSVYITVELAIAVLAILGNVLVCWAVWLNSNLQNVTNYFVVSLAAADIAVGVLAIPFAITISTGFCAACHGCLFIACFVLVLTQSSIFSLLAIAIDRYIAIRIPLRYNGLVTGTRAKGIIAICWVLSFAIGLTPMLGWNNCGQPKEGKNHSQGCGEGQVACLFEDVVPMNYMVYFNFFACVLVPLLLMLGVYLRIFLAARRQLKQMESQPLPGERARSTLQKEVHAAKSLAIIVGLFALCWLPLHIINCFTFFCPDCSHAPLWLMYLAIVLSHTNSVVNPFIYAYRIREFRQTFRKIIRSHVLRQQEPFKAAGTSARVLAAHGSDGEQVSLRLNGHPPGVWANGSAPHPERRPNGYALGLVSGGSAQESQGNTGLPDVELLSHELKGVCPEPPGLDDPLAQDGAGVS

Assay [2] addresses T1, Adenosine A2A receptor. In words: cAMP assay in 293A cells stably expressing the adenosine A2A receptor (CGS21680 stimulation, HTRF). In kind it is cell-based. Set-up: expressed in transfected cells; host or cells: 293A cells (Invitrogen, Cat# R705-07) infected with A2A-expressing lentivirus (custom packaged by Biosettia), puromycin selected. To be noted: 293A-A2AR cells, 0.1% BSA. In general terms: Changes in cAMP serve as a functional read-out for many G protein-coupled receptors.

Setting [3] is: 2 h room temperature, values separated by / are repeat determinations.
Setting [4] is: 8 nM CGS, values separated by / are repeat determinations, read-out: cAMP (nM) 0.1% BSA, 8 nM CGS.
Setting [5] is: 1 uM CGS, values separated by / are repeat determinations, read-out: cAMP (nM) 0.1% BSA, 1 uM CGS.

As to `Cc1cc(-c2c(OCCN(CCO)c3ccccn3)nc(N)nc2-c2ccc(F)cc2)cc(C(F)F)n1` [Example 153, 2-((2-((2-amino-5-(2-(difluoromethyl)-6-methylpyridin-4-yl)-6-(4-fluorophenyl)pyrimidin-4-yl)oxy)ethyl)(pyridin-2-yl)amino)ethan-1-ol], the pIC50 in assay [1] (setting [3]) was 8.05. The IC50 in assay [2] (setting [4]) was found to be 4.1 nM.
Take `Cc1cc(-c2c(OCC3COCCO3)nc(N)nc2-c2ccc(F)cc2)cc(C(F)F)n1` (stereo not shown) [Example 114]: the pIC50 in assay [1] (setting [3]) was 8.11. Moreover, the IC50 in assay [2] (setting [4]) was 6.2 nM and 4.2 nM.
Regarding `CNC(=O)NCCOc1nc(N)nc(-c2ccccc2)c1-c1cc(C)nc(C(F)(F)F)c1` [Example 120, 1-(2-((2-amino-5-(2-methyl-6-(trifluoromethyl)pyridin-4-yl)-6-phenylpyrimidin-4-yl)oxy)ethyl)-3-methylurea], the pIC50 in assay [1] (setting [3]) is 8.06. For the same molecule, the IC50 in assay [2] (setting [4]) was 13 nM and 8.2 nM.
For the molecule `Cc1cc(-c2c(OCCCN3CCN(c4ccc(F)cc4F)CC3)nc(N)nc2-c2ccccc2)cc(C(F)(F)F)n1` [Example 6, 4-(3-(4-(2,4-difluorophenyl)piperazin-1-yl)propoxy)-5-(2-methyl-6-(trifluoromethyl)pyridin-4-yl)-6-phenylpyrimidin-2-amine], the pIC50 in assay [1] (setting [3]) is 7.13. In assay [2] (setting [4]), the IC50 was 183 nM.
In turn, `Cc1cc(-c2c(OCC(C)(C)O)nc(N)nc2-c2ccc(F)cc2)cc(C(F)F)n1` [Example 62, 1-((2-amino-5-(2-(difluoromethyl)-6-methylpyridin-4-yl)-6-(4-fluorophenyl)pyrimidin-4-yl)oxy)-2-methylpropan-2-ol] had a negative-log IC50 (pIC50) in assay [1] (setting [3]) of 7.82. Further, the IC50 in assay [2] (setting [4]) is 15 nM.
`CCn1ccc(COc2nc(N)nc(-c3ccc(F)cc3)c2-c2cc(C)nc(C(F)F)c2)n1` [Example 228, 5-(2-(difluoromethyl)-6-methylpyridin-4-yl)-4-((1-ethyl-1H-pyrazol-3-yl)methoxy)-6-(4-fluorophenyl)pyrimidin-2-amine]: the pIC50 in assay [1] (HTRF) is 8.60 and 8.44. For the same molecule, the IC50 in assay [2] (8 nM CGS, read-out: cAMP (nM) 0.1% BSA, 8 nM CGS) turned out to be 0.9 nM; in assay [2] (1 uM CGS, read-out: cAMP (nM) 0.1% BSA, 1 uM CGS) it was 162 nM.
`Cc1cc(-c2c(OCC(=O)N(CCO)CCO)nc(N)nc2-c2ccc(F)cc2)cc(C(F)F)n1` [Example 88]: the pIC50 in assay [1] (setting [3]) is 7.66. In addition, the IC50 in assay [2] (setting [4]) turned out to be 8.3 nM; in assay [2] (setting [5]) it was 4260 nM.
In the case of `CCN(CC)C(=O)COc1nc(N)nc(-c2ccccc2)c1-c1cc(C)nc(C(F)F)c1` [Example 15, 2-((2-amino-5-(2-(difluoromethyl)-6-methylpyridin-4-yl)-6-phenylpyrimidin-4-yl)oxy)-N,N-diethylacetamide], the negative-log IC50 (pIC50) in assay [1] (setting [3]) is 8.49. The IC50 in assay [2] (setting [4]) is 0.5 nM and 2.1 nM.
As to `Cc1cc(-c2c(OCc3cccc(CO[C@H]4CCOC4)n3)nc(N)nc2-c2ccc(C)o2)cc(C(F)(F)F)n1` [Example 7, (S)-5-(2-methyl-6-(trifluoromethyl)pyridin-4-yl)-4-(5-methylfuran-2-yl)-6-((6-(((tetrahydrofuran-3-yl)oxy)methyl)pyridin-2-yl)methoxy)pyrimidin-2-amine], the pIC50 in assay [1] (setting [3]) is 7.24. The IC50 in assay [2] (setting [4]) was 380 nM.
In assay [1] (setting [3]), `Cc1cc(-c2c(NCc3cccc(CO[C@H]4CCOC4)n3)nc(N)nc2-c2ccccc2)cc(C(F)(F)F)n1` [Example 4, (S)-5-(2-methyl-6-(trifluoromethyl)pyridin-4-yl)-6-phenyl-N4-((6-(((tetrahydrofuran-3-yl)oxy)methyl)pyridin-2-yl)methyl)pyrimidine-2,4-diamine] gave a pIC50 of 6.86. Also, the IC50 in assay [2] (setting [4]) was 482 nM and 288 nM; in assay [2] (setting [5]) it was 23100 nM.
As for `CCNC(=O)COc1nc(N)nc(-c2ccc(F)cc2)c1-c1cc(C)nc(C(F)F)c1` [Example 39, 2-((2-amino-5-(2-(difluoromethyl)-6-methylpyridin-4-yl)-6-(4-fluorophenyl)pyrimidin-4-yl)oxy)-N-ethylacetamide], the pIC50 in assay [1] (setting [3]) was 8.14 and 8.19. Further, the IC50 in assay [2] (setting [4]) is 0.42 nM and 0.57 nM and 2.2 nM.
